Tests used:
[1] = system: Pyricularia oryzae; assay type: in vivo; details: 200 ppm spray on rice (Koshihikari, 3 leaf stage), inoculated next day; lesion numbers on third leaves after 7 days in green house, graded by Table 5
[2] = system: Colletotrichum lagenarium; details: 200 ppm spray on cucumber (3 leaf stage), inoculated next day; lesion numbers on first and second leaves after 7 days in green house, graded by Table 5

SMILES | Evaluation (effect for rice blast) [1] | Evaluation (effect for cucumber anthracnose) [2]
Cc1ccc(C(=O)NCc2cc(Cc3ccccc3C)no2)cc1 [IV-12, N-{[3-(2-methylbenzyl)-5-isoxazolyl]methyl}-4-methyl benzamide] | 5 (0) | 5 (0)
O=C(NCc1cc(CBr)no1)c1ccc(Cl)cc1Cl [III-275, N-[(3-bromomethyl-5-isoxazolyl)methyl]-2,4-dichlorobenzamide] | 2 (11˜20) | 2 (11˜20)
COc1ccc(C(=O)NCc2cc(C3CCCCC3)no2)cc1 [III-238, N-[(3-cyclohexyl-5-isoxazolyl)methyl]-4-methoxybenzamide] | 4 (1˜5) | 5 (0)
COc1ccc(C(=O)NCc2cc(COc3ccccc3C)no2)cc1 [IV-47, N-{[3-(2-methylphenyl)oxymethyl-5-isoxazolyl]methyl}-4-methoxy benzamide] | 5 (0) | 5 (0)
Cc1ccc(C(=O)NCc2cc(CSc3ccccc3)no2)cc1 [IV-40, N-[(3-phenylthiomethyl-5-isoxazolyl)methyl]-4-methylbenzamide] | 3 (6˜10) | 2 (11˜20)
COc1ccc(C(=O)NCc2cc(-c3ccc(OC(F)(F)F)cc3)no2)cc1 [III-49, N-{[3-(4-trifluoromethoxyphenyl)-5-isoxazolyl]methyl}-4-methoxybenzamide] | 5 (0) | 5 (0)
O=C(NCc1cc(C(=O)Nc2ccccc2)no1)c1ccc(Cl)cc1 [IV-114, N-[(3-phenylaminocarbonyl-5-isoxazolyl)methyl]-4-chlorobenzamide] | 5 (0) | 5 (0)
COc1ccc(-c2cc(CNC(=O)c3ccccc3)on2)cc1 [III-17, N-{[3-(4-methoxyphenyl)-5-isoxazolyl]methyl}benzamide] | 5 (0) | 5 (0)
CC(C)Cc1cc(CNC(=O)c2cccc3ccccc23)on1 [III-262, N-[(3-isobutyl-5-isoxazolyl)methyl]-1-naphthalenecarboxamide] | 5 (0) | 5 (0)
O=C(NCc1cc(COc2ccccc2)no1)c1ccccc1 [IV-44, N-[(3-phenoxymethyl-5-isoxazolyl)methyl]benzamide] | 5 (0) | 5 (0)
COc1ccc(C(=O)NCc2cc(/C=N/OCc3ccccc3)no2)cc1 [IV-124, N-[(3-benzyloxyiminomethyl-5-isoxazolyl)methyl]-4-methoxybenzamide] | 5 (0) | 5 (0)
COc1ccc(C(=O)NCc2cc(-c3ccc(C)cc3)no2)cc1 [III-12, N-{[3-(4-tolyl)-5-isoxazolyl]methyl}-4-methoxybenzamide] | 5 (0) | 5 (0)
COc1ccc(C(=O)NCc2cc(Cc3ccccc3)no2)cc1 [IV-2, N-[(3-benzyl-5-isoxazolyl)methyl]-4-methoxybenzamide] | 5 (0) | 5 (0)
COc1ccc(C(=O)NCc2cc(C(=O)Nc3ccc(F)cc3)no2)cc1 [IV-95, N-{[3-(4-fluorophenyl)aminocarbonyl-5-isoxazolyl]methyl}-4-methoxybenzamide] | 4 (1˜5) | 4 (1˜5)
COc1ccc(NC(=O)c2cc(CNC(=O)c3ccc(OC)cc3)on2)cc1 [IV-94, N-{[3-(4-methoxyphenyl)aminocarbonyl-5-isoxazolyl]methyl}-4-methoxybenzamide] | 2 (11˜20) | 3 (6˜10)
CSc1ccc(-c2cc(CNC(=O)c3ccc(C)cc3)on2)cc1 [III-28, N-{[3-(4-methylthiophenyl)-5-isoxazolyl]methyl}-4-methylbenzamide] | 5 (0) | 4 (1˜5)
COc1ccc(-c2cc(CNC(=O)c3ccc(C)cc3)on2)c(OC)c1 [III-66, N-{[3-(2,4-dimethoxyphenyl)-5-isoxazolyl]methyl}-4-methylbenzamide] | 5 (0) | 5 (0)
Cc1ccc(C(=O)NCc2cc(-c3ccc(C(=O)O)cc3)no2)cc1 [III-51, N-{[3-(4-carboxyphenyl)-5-isoxazolyl]methyl}-4-methylbenzamide] | 5 (0) | 4 (1˜5)
Cc1ccc(C(=O)NCc2cc(CCc3ccccc3)no2)cc1 [IV-35, N-{[3-(2-phenylethyl)-5-isoxazolyl]methyl}-4-methylbenzamide] | 5 (0) | 5 (0)
O=C(NCc1cc(-c2ccccc2)no1)c1ccc(Cl)cc1 [III-124, N-[(3-phenyl-5-isoxazolyl)methyl]-4-chlorobenzamide] | 5 (0) | 4 (1˜5)

SMILES | Evaluation (effect for rice blast) [1] | Evaluation (effect for cucumber anthracnose) [2]
COCc1cc(CNC(=O)c2ccc(OC)cc2)on1 [IV-111, N-[(3-methoxymethyl-5-isoxazolyl)methyl]-4-methoxybenzamide] | 3 (6˜10) | 3 (6˜10)
COc1ccc(C(=O)NCc2cc(CON=Cc3ccccc3)no2)cc1 [IV-74, {3-[(4-methoxyphenyl)carbonylaminomethyl]-5-isoxazolyl]methoxyiminobenzyl] | 4 (1˜5) | 3 (6˜10)
COc1ccc(C(=O)NCc2cc(-c3ccccc3Cl)no2)cc1 [III-231, N-{[3-(2-chlorophenyl)-5-isoxazolyl]methyl}-4-methoxybenzamide] | 5 (0) | 5 (0)
COc1ccc(C(=O)NCc2cc(C(C)C)no2)cc1 [III-225, N-[(3-isopropyl-5-isoxazolyl)methyl]-4-methoxybenzamide] | 4 (1˜5) | 4 (1˜5)
COc1ccc(C(=O)NCc2cc(COc3ccccc3OC)no2)cc1 [IV-54, N-{[3-(2-methoxyphenyl)oxymethyl-5-isoxazolyl]methyl}-4-methoxybenzamide] | 3 (6˜10) | 4 (1˜5)
Cc1ccc(-c2cc(CNC(=O)NC3CCCCC3)on2)cc1 [II-9, 1-{[3-(4-tolyl)-5-isoxazolyl]methyl}-3-cyclohexylurea] | 5 (0) | 5 (0)
O=C(NCc1cc(-c2ccccc2Cl)no1)Oc1ccccc1 [I-28, phenyl{[3-(2-chlorophenyl)-5-isoxazolyl]methyl}carbamate] | 4 (1˜5) | 5 (0)
O=C(NCc1cc(-c2ccccc2)no1)c1ccccn1 [III-174, (3-phenyl-5-isoxazolyl)methylaminocarbonyl-2-pyridine] | 4 (1˜5) | 4 (1˜5)
CC(C)Cc1cc(CNC(=O)c2ccc(Cl)c(Cl)c2)on1 [III-255, N-[(3-isobutyl-5-isoxazolyl)methyl]-3,4-dichlorobenzamide] | 4 (1˜5) | 4 (1˜5)
COc1ccc(C(=O)NCc2cc(C(=O)Nc3cccc(Cl)c3)no2)cc1 [IV-105, N-{[3-(3-chlorophenyl)aminocarbonyl-5-isoxazolyl]methyl}-4-methoxybenzamide] | 3 (6˜10) | 3 (6˜10)
O=C(NCc1cc(-c2ccccc2)no1)c1cccc(Cl)c1 [III-123, N-[(3-phenyl-5-isoxazolyl)methyl]-3-chlorobenzamide] | 5 (0) | 5 (0)
O=C(NCc1cc(COc2ccccc2)no1)NC1CCCCC1 [II-104, 3-(3-phenoxymethyl-5-isoxazolyl)methyl-1-cyclohexylurea] | 5 (0) | 5 (0)
Cc1ccc(-c2cc(CNC(=O)c3ccccc3O)on2)cc1 [III-134, N-[(3-(4-tolyl)-5-isoxazolyl)methyl]-2-hydroxybenzamide] | 3 (6˜10) | 5 (0)
COc1ccc(C(=O)NCc2cc(C(=O)Nc3ccc(OC(F)F)cc3)no2)cc1 [IV-93, N-{[3-(4-difluoromethyloxyphenyl)aminocarbonyl-5-isoxazolyl]methyl}-4-methoxybenzamide] | 4 (1˜5) | 3 (6˜10)
COc1ccc(C(=O)NCc2cc(-c3ccccc3)no2)cc1 [III-111, N-[(3-phenyl-5-isoxazolyl)methyl]-4-methoxy benzamide] | 5 (0) | 5 (0)
COc1ccc(C(=O)NCc2cc(-c3ccc(C(C)(C)C)cc3)no2)cc1 [III-14, N-{[3-(4-t-butylphenyl)-5-isoxazolyl]methyl}-4-methoxybenzamide] | 5 (0) | 3 (6˜10)
O=C(/C=C/c1ccccc1)NCc1cc(-c2ccccc2)no1 [III-201, (E)-N-[(3-phenyl-5-isoxazolyl)methyl]-3-phenylpropenamide] | 5 (0) | 5 (0)
COc1ccc(C(=O)NCc2cc(C(=O)Nc3ccc(C)cc3)no2)cc1 [IV-108, N-{[3-(4-tolyl)aminocarbonyl-5-isoxazolyl]methyl}-4-methoxybenzamide] | 2 (11˜20) | 2 (11˜20)
Cc1ccc(-c2cc(CNC(=O)NC3CCCC3)on2)cc1 [II-10, 3-[3-(4-tolyl)-5-isoxazolyl]methyl-1-cyclopentylurea] | 4 (1˜5) | 5 (0)

From patent US20050171358A1 (priority 2002, published 2005)
